The molecules below were run against T1, human LPA1 (Homo sapiens, UniProt Q92633) (assay: LPA1 functional antagonist assay (calcium flux)). Details: CHO cells overexpressing human LPA1; calcium flux induced by 10 nM LPA; read-out: hLPA1 IC50.
T1 construct: expressed in transfected cells; host or cells: Chinese hamster ovary (CHO) cells
Type: cell-based
Experimental: The effectiveness of compounds of the present invention as LPA1 inhibitors can be determined in an LPA1 functional antagonist assay as follows:
The cells were then equilibrated to room temperature for 30 minutes before the assay. […] IC50 values were determined by fitting data to a 4-parameter logistic equation (GraphPad Prism, San Diego Calif.).

T1 sequence (Q92633 whole entry): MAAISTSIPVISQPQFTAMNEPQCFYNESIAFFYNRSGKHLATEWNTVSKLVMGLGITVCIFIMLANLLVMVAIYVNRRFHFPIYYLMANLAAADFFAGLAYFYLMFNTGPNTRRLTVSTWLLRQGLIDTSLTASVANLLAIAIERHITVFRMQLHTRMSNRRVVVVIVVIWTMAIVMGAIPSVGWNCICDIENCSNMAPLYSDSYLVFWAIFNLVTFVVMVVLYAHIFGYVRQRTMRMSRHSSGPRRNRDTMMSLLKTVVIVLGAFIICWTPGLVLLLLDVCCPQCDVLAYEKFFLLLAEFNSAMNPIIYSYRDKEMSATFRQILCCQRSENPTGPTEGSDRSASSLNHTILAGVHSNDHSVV

SMILES | IC50
Cc1nc(-c2nnn(C)c2NC(=O)OCC(C)F)ccc1O[C@H]1CCC[C@H](C(=O)O)C1 (stereo partly drawn) [Example 143, (1S,3S)-3-((6-(5-(((2-fluoropropoxy)carbonyl)amino)-1-methyl-1H-1,2,3-triazol-4-yl)-2-methylpyridin-3-yl)oxy)cyclohexane-1-carboxylic acid] | 478 nM
CCCCOC(=O)NCc1c(-c2ccc(O[C@H]3CCC[C@H](C(=O)O)C3)c(C(F)(F)F)n2)nnn1C [Example 94, (1S,3S)-3-((6-(5-(((butoxycarbonyl)amino)methyl)-1-methyl-1H-1,2,3-triazol-4-yl)-2-(trifluoromethyl)pyridin-3-yl)oxy)cyclohexane-1-carboxylic acid] | 14 nM
Cc1nc(-c2nnn(C)c2CNC(=O)NC(CF)c2ccccc2)ccc1O[C@H]1CCC[C@H](C(=O)O)C1 (mixture of isomers) [Example 121, (1S,3S)-3-((6-(5-((3-(2-fluoro-1-phenyl-ethyl)ureido)methyl)-1-methyl-1H-1,2,3-triazol-4-yl)-2-methylpyridin-3-yl)oxy)cyclohexane-1-carboxylic acid] | 555 nM
CCCOC(=O)Nc1c(-c2ccc(O[C@H]3CCC[C@H](C(=O)O)C3)c(CC)n2)nnn1C [Example 233, (1S,3S)-3-[(2-ethyl-6-{1-methyl-5-[(propoxycarbonyl)amino]-1H-1,2,3-triazol-4-yl}pyridin-3-yl)oxy]cyclo-hexane-1-carboxylic acid] | 1040 nM
Cn1nnc(-c2ccc(O[C@H]3CCC[C@H](C(=O)O)C3)c(C(F)(F)F)n2)c1CNC(=O)OCCCCF [Example 97, (1S,3S)-3-((6-(5-((((4-fluorobutoxy)carbonyl)amino)methyl)-1-methyl-1H-1,2,3-triazol-4-yl)-2-(trifluoro-methyl)pyridin-3-yl)oxy)cyclohexane-1-carboxylic acid] | 25 nM
CCCCNC(=O)NCc1c(-c2ccc(O[C@H]3CCC[C@H](C(=O)O)C3)c(C)n2)nnn1C [Example 124, (1S,3S)-3-((6-(5-((3-butylureido)methyl)-1-methyl-1H-1,2,3-triazol-4-yl)-2-methylpyridin-3-yl)oxy)cyclohexane-1-carboxylic acid] | 434 nM
Cc1nc(-c2nnn(C)c2CNC(=O)NC(C)C(C)C)ccc1O[C@H]1CCC[C@H](C(=O)O)C1 (single isomer, unassigned) [Example 126] | 611 nM
Cn1nnc(-c2ccc(O[C@H]3CCC[C@H](C(=O)O)C3)cn2)c1CNC(=O)OCCc1ccccc1 [Example 9, (1S,3S)-3-((6-(1-methyl-5-(((phenethoxycarbonyl)amino)methyl)-1H-1,2,3-triazol-4-yl)pyridin-3-yl)oxy)cyclohexane-1-carboxylic acid] | 672 nM
CCc1nc(-c2nnn(C)c2CNC(=O)OCC(C)C)ccc1O[C@H]1CCC[C@H](C(=O)O)C1 [Example 46, (1S,3S)-3-((2-ethyl-6-(5-(((isobutoxycarbonyl)amino)methyl)-1-methyl-1H-1,2,3-triazol-4-yl)pyridin-3-yl)oxy)cyclohexane-1-carboxylic acid] | 120 nM
COCCOC(=O)NCc1c(-c2ccc(O[C@H]3CCC[C@H](C(=O)O)C3)c(C)n2)nnn1C [Example 21, (1S,3S)-3-((6-(5-((((2-methoxyethoxy)carbonyl)amino)methyl)-1-methyl-1H-1,2,3-triazol-4-yl)-2-methylpyridin-3-yl)oxy)cyclohexane-1-carboxylic acid] | 1620 nM
Cc1nc(-c2nnn(C)c2CNS(=O)(=O)NCC2CCCC2)ccc1O[C@H]1CCC[C@H](C(=O)O)C1 [Example 226, (1S,3S)-3-((6-(5-(((N-(cyclopentylmethyl)sulfamoyl)amino)methyl)-1-methyl-1H-1,2,3-triazol-4-yl)-2-methylpyridin-3-yl)oxy)cyclohexane-1-carboxylic acid] | 1100 nM
CCCCOC(=O)Nc1c(-c2ccc(O[C@H]3CCC[C@H](C(=O)O)C3)cn2)nnn1C [Example 89, (1S,3S)-3-((6-(5-((butoxycarbonyl)amino)-1-methyl-1H-1,2,3-triazol-4-yl)pyridin-3-yl)oxy)cyclohexane-1-carboxylic acid] | 66 nM

Other lines, results leading:

IC50 | SMILES
112 nM | Cc1nc(-c2nnn(C)c2CNC(=O)OCC2CCC2)c(F)cc1O[C@H]1CCC[C@H](C(=O)O)C1 [Example 212, (1S,3S)-3-((6-(5-((((cyclobutylmethoxy)carbonyl)amino)methyl)-1-methyl-1H-1,2,3-triazol-4-yl)-5-fluoro-2-methylpyridin-3-yl)oxy)cyclohexane-1-carboxylic acid]
85 nM | Cc1nc(-c2nnn(C)c2CNC(=O)N(C)Cc2ccccc2)ccc1O[C@H]1CCC[C@H](C(=O)O)C1 [Example 109, (1S,3S)-3-((6-(5-((3-benzyl-3-methyl-ureido)methyl)-1-methyl-1H-1,2,3-triazol-4-yl)-2-methylpyridin-3-yl)oxy)cyclohexanecarboxylic acid]
23 nM | Cn1nnc(-c2ccc(O[C@H]3CCC[C@H](C(=O)O)C3)cn2)c1CNC(=O)OCc1cccc(F)c1 [Example 12, (1S,3S)-3-((6-(5-(((((3-fluorobenzyl)oxy)carbonyl)amino)methyl)-1-methyl-1H-1,2,3-triazol-4-yl)pyridin-3-yl)oxy)cyclohexane-1-carboxylic acid]
270 nM | CCc1nc(-c2nnn(C)c2CNC(=O)NCC2CC2)ccc1O[C@H]1CCC[C@H](C(=O)O)C1 [Example 152, (1S,3S)-3-((6-(5-((3-(cyclopropyl-methyl)ureido)methyl)-1-methyl-1H-1,2,3-triazol-4-yl)-2-ethyl-pyridin-3-yl)oxy)cyclohexane-1-carboxylic acid]
72 nM | CCCCOC(=O)Nc1c(-c2nc(C)c(O[C@H]3CCC[C@H](C(=O)O)C3)cc2F)nnn1C [Example 217]
81 nM | Cn1nnc(-c2ccc(O[C@H]3CCC[C@H](C(=O)O)C3)cn2)c1CNC(=O)OCC1(C)CC1 [Example 52, (1S,3S)-3-((6-(1-methyl-5-(((((1-methylcyclopropyl)methoxy)carbonyl)amino)methyl)-1H-1,2,3-triazol-4-yl)pyridin-3-yl)oxy)cyclohexane-1-carboxylic acid]
329 nM | Cc1nc(-c2nnn(C)c2NC(=O)NCc2ccccc2)ccc1O[C@H]1CCC[C@H](C(=O)O)C1 [Example 135, (1S,3S)-3-((6-(5-(3-benzylureido)-1-methyl-1H-1,2,3-triazol-4-yl)-2-methylpyridin-3-yl)oxy)cyclohexane-1-carboxylic acid]
29 nM | CCCC(C)OC(=O)Nc1c(-c2ccc(O[C@H]3CCC[C@H](C(=O)O)C3)c(C)n2)nnn1C (stereo partly drawn) [Example 140, (1S,3S)-3-((2-methyl-6-(1-methyl-5-(((pentan-2-yloxy)carbonyl)amino)-1H-1,2,3-triazol-4-yl)pyridin-3-yl)oxy)cyclohexane-1-carboxylic acid]
110 nM | CCCCN(C)S(=O)(=O)N(C)Cc1c(-c2ccc(O[C@H]3CCC[C@H](C(=O)O)C3)c(C)n2)nnn1C [Example 229, (1S,3S)-3-((6-(5-(((N-butyl-N-methyl-sulfamoyl)(methyl)amino)methyl)-1-methyl-1H-1,2,3-triazol-4-yl)-2-methylpyridin-3-yl)oxy)cyclohexane-1-carboxylic acid]
89 nM | CCCOC(=O)Nc1c(-c2ccc(O[C@H]3CCC[C@H](C(=O)O)C3)c(C)n2)nnn1C [Example 68, (1S,3S)-3-((2-methyl-6-(1-methyl-5-((propoxycarbonyl)amino)-1H-1,2,3-triazol-4-yl)pyridin-3-yl)oxy)cyclohexane-1-carboxylic acid]
78 nM | Cc1nc(-c2nnn(C)c2NC(=O)OC2CCCCC2)ccc1O[C@H]1CCC[C@H](C(=O)O)C1 [Example 141, (1S,3S)-3-((6-(5-(((cyclohexyloxy)carbonyl)amino)-1-methyl-1H-1,2,3-triazol-4-yl)-2-methylpyridin-3-yl)oxy)cyclohexane-1-carboxylic acid]
8 nM | CCc1nc(-c2nnn(C)c2CNC(=O)OCc2ccccc2)ccc1O[C@H]1CCC[C@H](C(=O)O)C1 [Example 43, (1S,3S)-3-((6-(5-((((benzyloxy)carbonyl)amino)methyl)-1-methyl-1H-1,2,3-triazol-4-yl)-2-ethylpyridin-3-yl)oxy)cyclohexne-1-carboxylic acid]
11 nM | Cc1nc(-c2nnn(C)c2CNC(=O)OCC2CCC2)ccc1O[C@H]1CCC[C@H](C(=O)O)C1 [Example 33, (1S,3S)-3-((6-(5-((((cyclobutylmethoxy)carbonyl)amino)methyl)-1-methyl-1H-1,2,3-triazol-4-yl)-2-methylpyridin-3-yl)oxy)cyclohexane-1-carboxylic acid]

Same assay, conditions: human LPA1 functional antagonist assay; read-out: hLPA1 IC50

IC50 | SMILES
45 nM | Cc1nc(-c2nnn(C)c2CNC(=O)OCC(F)(F)C(F)(F)F)ccc1O[C@H]1CCC[C@H](C(=O)O)C1 [Example 198]
32 nM | Cc1nc(-c2nnn(C)c2CNC(=O)OC[C@H]2C[C@@H]2C)ccc1O[C@H]1CCC[C@H](C(=O)O)C1 (stereo in doubt) [Example 183, (1S,3S)-3((2-methyl-6-(1-methyl-5-(((((trans-2-methylcyclopropyl)methoxy)carbonyl)amino)methyl)-1H-1,2,3-triazol-4-yl)pyridin-3-yl)oxy)cyclohexane-1-carboxylic acid]
65 nM | Cc1nc(-c2nnn(C)c2CNC(=O)OCC2CC2(C)C)ccc1O[C@H]1CCC[C@H](C(=O)O)C1 (stereo partly drawn) [Example 164, (1S,3S)-3-((6-(5-(((((2,2-dimethyl-cyclopropyl)methoxy)carbonyl)amino)methyl)-1-methyl-1H-1,2,3-triazol-4-yl)-2-methylpyridin-3-yl)oxy)cyclohexane-1-carboxylic acid]

SMILES | IC50
Cc1nc(-c2nnn(C)c2CNC(=O)OCCC(C)(F)F)ccc1O[C@H]1CCC[C@H](C(=O)O)C1 [Example 202, (1S,3S)-3-((6-(5-((((3,3-difluorobutoxy)carbonyl)amino)methyl)-1-methyl-1H-1,2,3-triazol-4-yl)-2-methylpyridin-3-yl)oxy) cyclo-hexane-1-carboxylic acid] | 86 nM
